Test results: US9187413B2, “Peripherally restricted FAAH inhibitors” (The Regents of the University of California, priority 2010, dated 2015)
Where two headings read alike, the source gives them in different places.

Legend:
[1] = Drug transport assay through polarized TC7 monolayers; format: in vitro ADME; conditions: human
Procedure: (§1) Drug transport assays. Assays were performed at Cerep Inc. (Redmond, Wash.), following protocols outlined in the company's web-site (http://www.cerep.fr).
(§2) Drug transport assays Transport assays were conducted at Cerep Inc. (Redmond, Wash.). Cellular permeability was determined in the apical (A) to basal (B) and the B to A direction in the presence of 10 μM compound in Hanks' buffered salt solution containing 1% dimethylsulfoxide (DMSO). Efflux ratios were calculated as the ratio of B-A to A-B permeabilities.

[2] = test system: Pgp; test: as above; format: in vitro ADME; conditions: human, Caco-2, with verapamil (100 μM); TC7 monolayers, Pgp inhibitor verapamil (100 μM); read-out: B-A permeability with verapamil
Procedure: as §1, §2

[3] = test system: carrageenan-induced inflammation; test: Carrageenan-induced hyperalgesia, allodynia and paw edema; format: in vivo, mice; conditions: mice, 1 mg-kg^-1, i.p.
Procedure: Behavioral tests. We measured nocifensive responses elicited by i.p. injection of acetic acid in male Swiss and C57B1/6 (wild-type or FAAH-deficient) mice^40, intraplantar injection of carrageenan in male Swiss mice^20, intraplantar injection of formalin in male Sprague-Dawley rats^41, and sciatic nerve ligation in male Swiss mice^39.
Behavioral tests Acetic acid-induced writhing was measured in Swiss mice or C57B1/6 mice (wild-type and FAAH-deficient), as described^40 with minor modifications. Briefly, the mice were acclimated to the experimental room for 2 h. Each animal was injected with acetic acid (150 μL, 0.6% in saline) and placed into a glass cylinder. Abdominal stretches (extension of body and hind limbs) were counted for 20 min, starting 5 min after acetic acid injection. […] Behavior was scored by an observer blinded to the treatment conditions. Formalin-induced nociception was assessed in Sprague-Dawley rats, as described^41. The rats were singly housed and kept in a shared holding room under a 12:12 h light:dark cycle. They were given free access to food and water, and allowed to acclimate to the facility for a week before testing. […] They were acclimated to the observation container (clear plexiglas box, 29×29×25 cm) for 15 min before receiving an injection of formalin (50 μL, 5% in saline) into the dorsal surface of the right hind paw. Immediately after formalin injection, the rats were returned to the observation container and nocifensive behavior was recorded for 60 min with a video camera. Recordings were analyzed by observers blinded to treatment conditions. Nocifensive behavior was measured continuously for 60 min^41. […] Each 5-min bin was analyzed for time spent (1) lifting and (2) licking or biting the injected paw. Nocifensive behavior was analyzed using the composite pain score weighted scores technique (CPS-WST1,2) calculated for the entire time of observation (0-60 min) and, separately, for the first (0-10 min) and second phase (10-60 min) of the behavioral response^46. The area under the curve (AUC) corresponding to CPS-WST1,2 was calculated using the trapezoidal rule. Paw edema was induced in mice by injection into the right hind paws of 50 μL of sterile saline containing 1% λ-carrageenan. Paw volumes were measured using a plethysmometer (Ugo Basile, Milan, Italy). […] Rimonabant and AM630 (1 mg kg^−1, i.p.) were injected 30 min before carrageenan. Mechanical hyperalgesia was assessed by measuring the latency(s) to withdraw the paw from a constant mechanical pressure exerted onto its dorsal surface. A 15-g calibrated glass cylindrical rod (diameter=10 mm) chamfered to a conical point (diameter=3 mm) was used to exert the mechanical force. The weight was suspended vertically between two rings attached to a stand and was free to move vertically. A cutoff time of 3 min was used. Thermal hyperalgesia was assessed as described^47, measuring the latency to withdraw the hind paw from a focused beam of radiant heat (thermal intensity: infrared 3.0) applied to the plantar surface, using a commercial apparatus (Ugo Basile, Varese, Italy). The cutoff time was set at 30 s. Mechanical allodynia was assessed by applying a graded force to the plantar hind paw surface with a Von Frey filament, using a Dynamic Plantar Anesthesiometer (Ugo Basile). The cutoff force was set at 50 g.

`NC(=O)c1cccc(-c2cc(OC(=O)NC3CCCCC3)ccc2O)c1` [Compound 1b, cyclohexylcarbamic acid 3′-carbamoyl-6-hydroxybiphenyl-3-yl ester] showed a recovery at 10 μM ([1]; Caco-2, TC7 monolayers, 10 μM compound, read-out: % recovery A-B) of 83%, a recovery at 10 μM ([1]; Caco-2, TC7 monolayers, 10 μM compound, read-out: % recovery B-A) of 95% and a recovery at 10 μM ([1]; Caco-2, with verapamil 100 μM, TC7 monolayers, verapamil (100 μM), read-out: % recovery B-A with verapamil) of 94%. The Papp A→B at 10 μM ([1]; Caco-2, TC7 monolayers, 10 μM compound, mean of 2 independent experiments, read-out: permeability A-B) was 3.8 ×10⁻⁶ cm/s, the Papp B→A at 10 μM ([1]; Caco-2, TC7 monolayers, 10 μM compound, mean of 2 independent experiments, read-out: permeability B-A) was 37.1 ×10⁻⁶ cm/s and the Papp B→A at 10 μM [2] was 32.2 ×10⁻⁶ cm/s. For the same compound, the “carrageenan-induced paw edema, 4 h” value ([3]; 4 h after carrageenan) was “did not affect paw edema”, the “carrageenan-induced mechanical and thermal hyperalgesia” value ([3]; 4 h and 24 h following carrageenan) was “significant decrease” and the carrageenan-induced mechanical allodynia ([3]; 24 h after carrageenan) was “suppressed mechanical allodynia”. The “carrageenan-induced paw edema, 24 h” value ([3]; 24 h after carrageenan) was “reversed it”.
